Read-outs that look alike come from different tables or passages of the source.
What was measured:
[1] = test system: PERV RT, Cell culture virus PERV-PK15; experiment: Drug resistance indicator assay, remaining RT activity; conditions: EFV 9.0 μM, 6 mM Mn2+
[2] = target: T1, SIV Recombinant RT SIVsmH4 (Simian immunodeficiency virus, UniProt P12502); experiment: as above; format: biochemical; conditions: for remaining activity at 9 µM: EFV 9.0 μM
T1 construct: The recombinantly expressed and purified SIV RT was derived from the molecular clone pSIVsm/H4; made in house; host or cells: E. coli BL21 (DE3), vector pSRT.ET 11c
T1 sequence (P12502 598-1156 limits assumed): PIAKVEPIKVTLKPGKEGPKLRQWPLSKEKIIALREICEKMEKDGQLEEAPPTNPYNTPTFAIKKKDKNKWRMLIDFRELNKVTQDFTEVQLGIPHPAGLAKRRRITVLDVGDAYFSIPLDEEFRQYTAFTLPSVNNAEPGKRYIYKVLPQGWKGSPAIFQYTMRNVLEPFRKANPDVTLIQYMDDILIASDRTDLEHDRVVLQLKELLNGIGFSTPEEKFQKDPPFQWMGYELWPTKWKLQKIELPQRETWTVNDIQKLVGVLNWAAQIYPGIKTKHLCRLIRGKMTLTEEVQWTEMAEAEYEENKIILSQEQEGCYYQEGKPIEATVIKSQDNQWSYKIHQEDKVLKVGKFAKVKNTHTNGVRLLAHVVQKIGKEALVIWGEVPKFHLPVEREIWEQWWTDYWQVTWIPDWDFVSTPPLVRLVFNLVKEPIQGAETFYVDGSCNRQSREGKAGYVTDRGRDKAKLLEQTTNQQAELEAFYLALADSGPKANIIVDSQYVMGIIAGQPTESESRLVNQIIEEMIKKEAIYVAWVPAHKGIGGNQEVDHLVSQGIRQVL
Procedure: The recombinantly expressed and purified SIV RT was derived from the molecular clone pSIVsm/H4. An expression vector pSRT.ET 11c was constructed and expression of SIV-RT in E. coli strain BL21 (DE3) in ordinary LB medium was carried out. The enzyme was purified in three chromatographic steps on a Heparin Sepharose CL-6B column, a Sepharose FF column and a Phenyl Sepharose CL-4B column.
(§1) The RT extracts recovered from this process and the other RT samples were analyzed for remaining activity according to above described drug resistance indicator assay.

[3] = test system: FIV RT, Cell culture virus M2 CladB; experiment: as above; format: biochemical
Procedure: as §1

[4] = test system: BLV RT, Cell culture virus FLK-BLV cells; experiment: as above; conditions: EFV 9.0 μM
Procedure: (This cell line is chronically infected by BLV).
(§5) Drug reaction solution: A buffer identical to above mentioned RT Reaction solution with a defined concentration of an antiviral drug added.
(§6) Each lysate is split into two aliquots, one whereof is added to a well containing drug at a predetermined concentration, and one whereof is added to a well without added drug. Apart from the lysates, said HIV drug susceptibility reference samples are also included in the assay.
(§7) The virus susceptibility to treatment with the drug can be determined from the relation between the enzyme activities in the presence and in absence of the drug. This can be expressed as percent remaining RT activity, i.e. the quota between signal in presence of drug and signal in absence of drug times 100.

[5] = test system: 69SS + 5M Recombinant RT HXB2 M41L,T69S-SS, L210W, R211K, L214F, T215Y; experiment: as above; conditions: EFV 9.0 μM
Procedure: as §5, §6, §7

[6] = test system: HIV-2 RT, Cell culture virus CRF01_AB; experiment: as above; conditions: EFV 9.0 μM; HIV-2 CRF01_AB
Procedure: as §5, §6, §7

[7] = test system: JSRV RT, Cell culture virus UK strain; experiment: as above; conditions: EFV 9.0 μM
Procedure: as §5, §6, §7

[8] = test system: Mammalian γ -polymerase, mithochondria, Beef Heart; experiment: Drug resistance indicator assay, remaining polymerase activity; conditions: EFV 9.0 μM
Procedure: as §5, §6, §7

[9] = test system: 69SG + 5M Recombinant RT HXB2 M41L,T69S-SG, L210W, R211K, L214F, T215Y; experiment: Drug resistance indicator assay, remaining RT activity; conditions: EFV 9.0 μM
[10] = test system: RT extracted from HIV-1 C Plasma Sa72 wild type; experiment: as above; format: biochemical
Procedure: (§2) Isolation of HIV is performed in a separation plate, a 96 deep-well microplate (well volume 2 ml). The Viral Load assay is started by addition of 40 μl sample additive e.g 5,5′-dithiobis-(2-nitrobenzoic acid) to each well (see FIG. 2). Thereafter the patient plasmas and control samples are added. Sample additive is mixed with the plasma prior to isolation of HIV for inactivation of certain enzymes present in the plasma. After 20 minutes incubation, a slurry containing 1 μm magnetic polymeric beads, is added to the wells. The positively charged beads are used to capture the HIV particles. At low pH (e.g. 5.5) and appropriate salt concentration the negatively charged HIV particles bind to the beads while most of the other components present in plasma will not bind, e.g. the proteins (antibodies) and anti-retroviral drugs (ARVs). After an additional five minutes incubation, the microwell plate is transported to a magnetic plate. When exposed to the magnetic field from the magnetic plate, the beads will be trapped to the walls of the wells. The plasma can then be removed by aspiration using a pipette. The separation plate is then transported back to the shaker, away from the magnetic plate.
(§3) The wash procedure (see FIG. 3) starts by adding a first wash buffer, the Bead Wash Buffer, and the entire separation plate will be shaken during three minutes to resuspend the beads. After that, the separation plate is moved to the magnetic plate where the beads will be exposed to the magnetic field and trapped to the walls of the wells. Next, the wash buffer is aspirated. The separation plate is then transported back to the shaker, away from the magnetic plate. In the current example, this wash procedure is repeated three times with the Bead Wash Buffer (referred to as “Wash solution 1” in FIG. 3) and one time with the second wash buffer, the so called Bead Reconditioning Buffer (referred to as “Wash solution 2” in FIG. 3).
(§4) The reverse transcriptase (RT) is now to be extracted from the viral particles, which is illustrated in FIG. 4. The HIV particle is composed of a protein core surrounded by a lipid bilayer envelope that will break if it is exposed to certain detergents. Once the lipid bilayer envelope is dissolved, the protein core falls apart and the RT inside is released. When the last wash step is finalized, lysis buffer containing e. g. the detergent Synperonic A11 is added to the wells, in FIG. 4 referred to as “lysis buffer”. The virus envelope breaks and the reverse transcriptase, RT, is released. With the magnetic beads still bound to the walls of the wells, the lysate containing the released RT is collected by aspiration and used in the subsequent RT reaction step.

[11] = test system: RT extracted from HIV-1 C Plasma Sa147 K103N, E138Q, Y318F, M184V; experiment: as above; format: biochemical
Procedure: as §2, §3, §4

[12] = test system: HTLV-1 RT, Cell culture virus MT-2 Cells; experiment: as above; conditions: EFV 9.0 μM
Procedure: as §5
(§8) Each lysate is split into two aliquots, one whereof is added to a well containing drug at a predetermined concentration, and one whereof is added to a well without added drug.
as §7

[13] = target: HTLV-2 RT, Cell culture virus (Human T-cell leukemia virus 2, UniProt P03363); experiment: as above
Sequence of HTLV-2 RT, Cell culture virus (P03363 580-1166): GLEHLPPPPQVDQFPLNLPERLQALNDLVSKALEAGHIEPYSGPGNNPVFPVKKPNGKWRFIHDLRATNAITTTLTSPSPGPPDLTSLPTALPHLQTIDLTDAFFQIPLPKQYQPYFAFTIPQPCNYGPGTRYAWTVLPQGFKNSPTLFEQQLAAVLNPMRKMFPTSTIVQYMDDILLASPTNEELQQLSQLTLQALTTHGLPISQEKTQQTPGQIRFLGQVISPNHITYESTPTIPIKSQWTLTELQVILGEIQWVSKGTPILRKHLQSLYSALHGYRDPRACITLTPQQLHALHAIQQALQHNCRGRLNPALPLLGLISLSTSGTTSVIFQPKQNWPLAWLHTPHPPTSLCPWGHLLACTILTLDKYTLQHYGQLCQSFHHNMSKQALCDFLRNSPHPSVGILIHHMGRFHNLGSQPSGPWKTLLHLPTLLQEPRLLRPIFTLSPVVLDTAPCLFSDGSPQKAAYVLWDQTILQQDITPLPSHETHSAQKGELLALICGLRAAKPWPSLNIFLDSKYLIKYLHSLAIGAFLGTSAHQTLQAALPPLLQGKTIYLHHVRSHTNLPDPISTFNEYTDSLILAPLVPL
Procedure: as §5, §8, §7

[14] = target: T2, MMTV Recombinant RT BR6 strain (Mouse mammary tumor virus, UniProt P03365); experiment: as above
T2 sequence (P03365 861-1436 limits assumed): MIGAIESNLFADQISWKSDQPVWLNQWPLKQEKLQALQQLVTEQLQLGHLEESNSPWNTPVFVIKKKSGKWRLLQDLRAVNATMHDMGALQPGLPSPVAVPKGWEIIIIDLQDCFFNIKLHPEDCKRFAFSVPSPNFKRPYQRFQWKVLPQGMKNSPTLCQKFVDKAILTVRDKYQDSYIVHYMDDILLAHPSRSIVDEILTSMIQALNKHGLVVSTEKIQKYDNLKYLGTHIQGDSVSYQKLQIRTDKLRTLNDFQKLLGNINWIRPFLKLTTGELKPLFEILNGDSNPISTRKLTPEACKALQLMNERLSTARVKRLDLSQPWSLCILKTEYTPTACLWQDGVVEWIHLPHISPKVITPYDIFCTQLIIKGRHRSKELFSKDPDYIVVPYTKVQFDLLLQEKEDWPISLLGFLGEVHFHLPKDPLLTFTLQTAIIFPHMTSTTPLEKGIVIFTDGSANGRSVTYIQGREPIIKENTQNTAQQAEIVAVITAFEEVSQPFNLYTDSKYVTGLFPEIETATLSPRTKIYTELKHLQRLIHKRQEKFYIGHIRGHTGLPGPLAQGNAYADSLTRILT
Procedure: as §5, §6, §7

[15] = target: T3, HIV-1 B Recombinant RT BH10 wild type (Human immunodeficiency virus type 1 group M subtype B, UniProt P03366); experiment: biochemical; conditions: read-out: Remaining activity (% of actvity in absence of drug)
T3 construct: His-tag (C); made in house; host or cells: E. coli BL21 (DE3); plasmid purchased from Genescript
Procedure: as §1

[16] = target: HIV-1 B Recombinant RT HXB2 wild type (Human immunodeficiency virus type 1 group M subtype B, UniProt P04585); experiment: biochemical; conditions: read-out: Remaining activity (% of actvity in absence of drug)
Procedure: as §1

Structure (SMILES): O=C1Nc2ccc(Cl)cc2[C@@](C#CC2CC2)(C(F)(F)F)O1 [EFV, (−)6-chloro-4-cyclopropylethynyl-4-trifluoromethyl-I,4-dihydro-2H-3,1-benzoxazin-2-one]
- Remaining activity (%) [1]: 98.0%
- remaining activity at 9 µM ([2]; SIVsmH4, read-out: Remaining activity (% of actvity in absence of drug)): 99.9%
- remaining activity at 9 µM ([2]; SIVsmH4, read-out: Remaining activity (%)): 103%
- Remaining activity (% of actvity in absence of drug) ([3]; EFV 9.0 μM): 93.6%
- Remaining activity (%) ([3]; EFV 9.0 μM): 93.6%
- Remaining activity (%) [4]: 101.7%
- Remaining activity (%) [5]: 3.5%
- Remaining activity (%) [6]: 100.2%
- Remaining activity (%) [7]: 102.7%
- Remaining activity (%) [8]: 94.8%
- Remaining activity (%) [9]: 3.9%
- Remaining activity (% of actvity in absence of drug) ([10]; EFV 9.0 μM): 8.3%
- Remaining activity (% of actvity in absence of drug) ([11]; EFV 9.0 μM): 87.8%
- Remaining activity (%) [12]: 93.8%
- remaining activity at 9 µM [13]: 91.7%
- remaining activity at 9 µM [14]: 102%

Structure (SMILES): Cc1cc(C#N)cc(C)c1Oc1nc(Nc2ccc(C#N)cc2)nc(N)c1Br [ETV, 4-({6-amino-5-bromo-2-[(4-cyanophenyl)amino]pyrimidin-4-yl}oxy)-3,5-dimethylbenzonitrile]
- remaining activity at 21.8 µM ([2]; ETV 21.8 μM, SIVsmH4, read-out: Remaining activity (% of actvity in absence of drug)): 98.5%
- Remaining activity (% of actvity in absence of drug) ([3]; ETV 21.8 μM): 90.6%
- remaining activity at 21.8 µM [15]: 3.5%
- remaining activity at 21.8 µM [16]: 2.8%
- Remaining activity (% of actvity in absence of drug) ([10]; ETV 21.8 μM): 6.5%
- Remaining activity (% of actvity in absence of drug) ([11]; ETV 21.8 μM): 68.0%

Structure (SMILES): Cc1ccnc2c1NC(=O)c1cccnc1N2C1CC1 [NPV, 11-cyclopropyl-5,11-dihydro-4-methyl-6H-dipyrido[3,2-b:2′,3′-f][1,4]diazepin-6-one]
- remaining activity at 81 µM ([2]; read-out: Remaining activity (% of actvity in absence of drug)): 99.5%
- Remaining activity (% of actvity in absence of drug) ([3]; NPV 81.0 μM): 87.7%
- remaining activity at 81 µM [15]: 3.4%
- remaining activity at 81 µM [16]: 8.1%
- Remaining activity (% of actvity in absence of drug) ([10]; NPV 81.0 μM): 16.1%
- Remaining activity (% of actvity in absence of drug) ([11]; NPV 81.0 μM): 94.9%

Structure (SMILES): Cc1cc(/C=C/C#N)cc(C)c1Nc1ccnc(Nc2ccc(C#N)cc2)n1 [RPV, 4-{[4-({4-[(1E)-2-cyanoeth-1-en-1-yl]-2,6-dimethylphenyl}amino)pyrimidin-2-yl]amino}benzonitrile]
- remaining activity at 12 µM ([2]; RPV 12.0 μM, SIVsmH4, read-out: Remaining activity (% of actvity in absence of drug)): 108%
- Remaining activity (% of actvity in absence of drug) ([3]; RPV 12.0 μM): 86.1%
- remaining activity at 12 µM ([15]; RPV 12.0 μM, BH10 wild type): 2.5%
- remaining activity at 12 µM ([16]; RPV 12.0 μM, HXB2 wild type): 2.4%
- Remaining activity (% of actvity in absence of drug) ([10]; RPV 12.0 μM): 9.3%
- Remaining activity (% of actvity in absence of drug) ([11]; RPV 12.0 μM): 80.8%
